Results on 18 molecules are retold here after patent US8828401B2, “Cytotoxic peptides and antibody drug conjugates thereof” (Pfizer Inc., priority 2011, dated 2014).

Common to all, as to assay: In vitro cell assay, MTS cell viability 96 hours after treatment
Common to all, as to assay type: cell-based

The test system of one experiment is N87 (gastric cancer). The settings on record: read-out: N87 GMEAN IC50, N87 cells; geometric mean; cytotoxic peptides. The method, then:
(§1) Cells were treated with 3-fold serially diluted antibody-drug conjugates or free compounds (i.e., no antibody conjugated to the drug) in duplicate at 10 concentrations. Cell viability was determined by CellTiter 96® AQueous One Solution Cell Proliferation MTS Assay (Promega, Madison Wis.) 96 hours after treatment. Relative cell viability was determined as percentage of untreated control.

Another experiment relates to BT474 (breast cancer). The settings on record: Homo sapiens, BT-474, BT474 cells; geometric mean; cytotoxic peptides; read-out: BT474 GMEAN IC50. The method, then:
as §1

Experiment [1] has as its system MDA-MB-361-DYT2 (breast cancer). The settings on record: read-out: MDA-MB-361-DYT2 GMEAN IC50, MDA-MB-361-DYT2 cells; geometric mean; cytotoxic peptides. The method, then:
as §1

Starred links: 1 amine or outer side, 2 acyl side, 3 side chain; linkers in the order of their positions; H or OH if unused. Non-standard residues stand in square brackets, D forms with d. Residues, ends and D or L forms follow the SMILES beside them. *: point of attachment. Dolaproine = CO[C@@H]([C@@H]1CCCN1)[C@@H](C)C(=O)O; X11 = O=C([C@@H](N[*:1])[C@H]1Cc2ccccc21)[*:2]; X2 = O=C([C@H](N[*:1])C1(c2ccccc2)CC1)[*:2]; Dil = CC[C@H](C)[C@H](NC)[C@@H](CC(=O)O)OC; Doe = c1ccc(C[C@H](N*)c2nccs2)cc1; d(αMeV) = CC(C)[C@@](C)(N)C(=O)O; d(αMeP) = C[C@]1(C(=O)O)CCCN1; αMeP = C[C@@]1(C(=O)O)CCCN1; X13 = c1ccc(C2(CN*)CC2)cc1; Iva = CC[C@](C)(N)C(=O)O; NMeAib = CNC(C)(C)C(=O)O; X4 = CN(C)C(C)(C)C(=O)*; X8 = C1=CC=CC(CCN*)C=C1; Ac3c = NC1(C(=O)O)CC1; Aib = CC(C)(N)C(=O)O; OAll = C=CCO*; NHPr = CCCN*

Consider `CC[C@H](C)[C@@H]([C@@H](CC(=O)N1CCC[C@H]1[C@H](OC)[C@@H](C)C(=O)N[C@@H](Cc1ccccc1)C(=O)OC)OC)N(C)C(=O)[C@@H](NC(=O)[C@@]1(C)CCCCN1)C(C)C` (single isomer, unassigned) [#159], for which the figures for the IC50 in the experiment with N87 (gastric cancer) and in the experiment with BT474 (breast cancer) were 0.075 nM and 0.07 nM, respectively.

As to `CC[C@H](C)[C@@H]([C@@H](CC(=O)N1CCC[C@H]1[C@H](OC)[C@@H](C)C(=O)N[C@@H](Cc1ccccc1)c1nccs1)OC)N(C)C(=O)[C@@H](NC(=O)C1(N)CC1)C(C)C` [#51, N^2-[(1-aminocyclopropyl)carbonyl]-N-[(3R,4S,5S)-3-methoxy-1-{(2S)-2-[(1R,2R)-1-methoxy-2-methyl-3-oxo-3-{[(1S)-2-phenyl-1-(1,3-thiazol-2-yl)ethyl]amino}propyl]pyrrolidin-1-yl}-5-methyl-1-oxoheptan-4-yl]-N-methyl-L-valinamide] (H-[Ac3c]V[Dil][Dolaproine]-Doe), the IC50 in the experiment with N87 (gastric cancer) is 3.66 nM; in the experiment on BT474 (breast cancer), under 0.599 nM.

Consider `CC[C@H](C)[C@@H]([C@@H](CC(=O)N1CCC[C@H]1[C@H](OC)[C@@H](C)C(=O)N[C@@H](Cc1ccccc1)c1nccs1)OC)N(C)C(=O)[C@@H](NC(=O)C(C)(C)N)C(C)C` [#54, 2-methylalanyl-N-[(3R,4S,5S)-3-methoxy-1-{(2S)-2-[(1R,2R)-1-methoxy-2-methyl-3-oxo-3-{[(1S)-2-phenyl-1-(1,3-thiazol-2-yl)ethyl]amino}propyl]pyrrolidin-1-yl}-5-methyl-1-oxoheptan-4-yl]-N-methyl-L-valinamide] (H-[Aib]V[Dil][Dolaproine]-Doe), for which the IC50 in the experiment with N87 (gastric cancer) was under 0.221 nM; with BT474 (breast cancer) it was under 0.133 nM.

With `CC[C@H](C)[C@@H]([C@@H](CC(=O)N1CCC[C@H]1[C@H](OC)[C@@H](C)C(=O)NCC1(c2ccccc2)CC1)OC)N(C)C(=O)[C@@H](NC(=O)C(C)(C)N)C(C)C` [#60, 2-methylalanyl-N-[(3R,4S,5S)-3-methoxy-1-{(2S)-2-[(1R,2R)-1-methoxy-2-methyl-3-oxo-3-{[(1-phenylcyclopropyl)methyl]amino}propyl]pyrrolidin-1-yl}-5-methyl-1-oxoheptan-4-yl]-N-methyl-L-valinamide] (H-[Aib]V[Dil][Dolaproine]-X13), the IC50 came to 0.524 nM in the experiment on BT474 (breast cancer) and 0.957 nM in experiment [1].

`CC[C@H](C)[C@@H]([C@@H](CC(=O)N1CCC[C@H]1[C@H](OC)[C@@H](C)C(=O)N[C@@H](Cc1ccccc1)C(=O)O)OC)N(C)C(=O)[C@@H](NC(=O)C(C)(C)N)C(C)C` [#69, 2-methylalanyl-N-[(3R,4S,5S)-1-{(2S)-2-[(1R,2R)-3-{[(1S)-1-carboxy-2-phenylethyl]amino}-1-methoxy-2-methyl-3-oxopropyl]pyrrolidin-1-yl}-3-methoxy-5-methyl-1-oxoheptan-4-yl]-N-methyl-L-valinamide] (H-[Aib]V[Dil][Dolaproine]F-OH): the figures for the half-inhibitory concentration (IC50) with N87 (gastric cancer) and in the experiment on BT474 (breast cancer) were 66 nM and 80.2 nM, respectively.

As to `CC[C@H](C)[C@@H]([C@@H](CC(=O)N1CCC[C@H]1[C@H](OC)[C@@H](C)C(=O)N[C@@H](Cc1ccccc1)C(=O)OC)OC)N(C)C(=O)[C@@H](NC(=O)[C@]1(C)CCCN1)C(C)C` [#117, 2-methyl-L-prolyl-N-{(1S,2R)-4-{(2S)-2-[(1R,2R)-3-{[(1S)-1-benzyl-2-methoxy-2-oxoethyl]amino}-1-methoxy-2-methyl-3-oxopropyl]pyrrolidin-1-yl}-2-methoxy-1-[(1S)-1-methylpropyl]-4-oxobutyl}-N-methyl-L-valinamide] (H-[αMeP]V[Dil][Dolaproine]F-OMe), the half-inhibitory concentration (IC50) stood at 0.096 nM in the experiment with BT474 (breast cancer) and 0.118 nM in experiment [1].

With `CC[C@H](C)[C@@H]([C@@H](CC(=O)N1CCC[C@H]1[C@H](OC)[C@@H](C)C(=O)N[C@@H](Cc1ccccc1)C(=O)OC)OC)N(C)C(=O)[C@@H](NC(=O)[C@@]1(C)CCCN1)C(C)C` [#131, 2-methyl-D-prolyl-N-[(3R,4S,5S)-3-methoxy-1-{(2S)-2-[(1R,2R)-1-methoxy-3-{[(2S)-1-methoxy-1-oxo-3-phenylpropan-2-yl]amino}-2-methyl-3-oxopropyl]pyrrolidin-1-yl}-5-methyl-1-oxoheptan-4-yl]-N-methyl-L-valinamide] (H-[d(αMeP)]V[Dil][Dolaproine]F-OMe), the 50% inhibitory concentration (IC50) in the experiment on BT474 (breast cancer) is 0.072 nM.

For `CC[C@H](C)[C@@H]([C@@H](CC(=O)N1CCC[C@H]1[C@H](OC)[C@@H](C)C(=O)N[C@@H](Cc1ccccc1)C(N)=O)OC)N(C)C(=O)[C@@H](NC(=O)C(C)(C)NC)C(C)C` [#141, N,2-dimethylalanyl-N-{(1S,2R)-4-{(2S)-2-[(1R,2R)-3-{[(1S)-2-amino-1-benzyl-2-oxoethyl]amino}-1-methoxy-2-methyl-3-oxopropyl]pyrrolidin-1-yl}-2-methoxy-1-[(1S)-1-methylpropyl]-4-oxobutyl}-N-methyl-L-valinamide] (H-[NMeAib]V[Dil][Dolaproine]F-NH2), the concentration for half-maximal inhibition (IC50) in the experiment on N87 (gastric cancer) amounted to 3.02 nM; in the experiment on BT474 (breast cancer) it was 3.37 nM.

Turning to `CCCNC(=O)[C@H](Cc1ccccc1)NC(=O)[C@H](C)[C@@H](OC)[C@@H]1CCCN1C(=O)C[C@@H](OC)[C@H]([C@@H](C)CC)N(C)C(=O)[C@@H](NC(=O)C(C)(C)NC)C(C)C` [#142, N,2-dimethylalanyl-N-{(1S,2R)-4-{(2S)-2-[(1R,2R)-3-{[(1S)-1-benzyl-2-oxo-2-(propylamino)ethyl]amino}-1-methoxy-2-methyl-3-oxopropyl]pyrrolidin-1-yl}-2-methoxy-1-[(1S)-1-methylpropyl]-4-oxobutyl}-N-methyl-L-valinamide] (H-[NMeAib]V[Dil][Dolaproine]F-NHPr), the 50% inhibitory concentration (IC50) with BT474 (breast cancer) was determined as 0.279 nM.

Turning to `CC[C@H](C)[C@@H]([C@@H](CC(=O)N1CCC[C@H]1[C@H](OC)[C@@H](C)C(=O)N[C@@H](Cc1ccccc1)C(=O)OC)OC)N(C)C(=O)[C@@H](NC(=O)[C@](C)(N)C(C)C)C(C)C` [#146, 3-methyl-D-isovalyl-N-{(1S,2R)-4-{(2S)-2-[(1R,2R)-3-{[(1S)-1-benzyl-2-methoxy-2-oxoethyl]amino}-1-methoxy-2-methyl-3-oxopropyl]pyrrolidin-1-yl}-2-methoxy-1-[(1S)-1-methylpropyl]-4-oxobutyl}-N-methyl-L-valinamide] (H-[d(αMeV)]V[Dil][Dolaproine]F-OMe), the concentration for half-maximal inhibition (IC50) in the experiment with N87 (gastric cancer) came to 0.195 nM; with BT474 (breast cancer) it was 0.435 nM.

For `CC[C@H](C)[C@@H]([C@@H](CC(=O)N1CCC[C@H]1[C@H](OC)[C@@H](C)C(=O)N[C@@H](Cc1ccccc1)C(=O)OC)OC)N(C)C(=O)[C@@H](NC(=O)[C@@](C)(N)CC)C(C)C` [#148, L-isovalyl-N-{(1S,2R)-4-{(2S)-2-[(1R,2R)-3-{[(1S)-1-benzyl-2-methoxy-2-oxoethyl]amino}-1-methoxy-2-methyl-3-oxopropyl]pyrrolidin-1-yl}-2-methoxy-1-[(1S)-1-methylpropyl]-4-oxobutyl}-N-methyl-L-valinamide] (H-[Iva]V[Dil][Dolaproine]F-OMe), the IC50 in the experiment with BT474 (breast cancer) stood at 0.429 nM.

Consider `CC[C@H](C)[C@@H]([C@@H](CC(=O)N1CCC[C@H]1[C@H](OC)[C@@H](C)C(=O)N[C@@H](Cc1ccccc1)c1nccs1)OC)N(C)C(=O)[C@@H](NC(=O)[C@@]1(C)CCCCN1)C(C)C` [#190, (2R)—N-[(2S)-1-{[(3R,4S,5S)-3-methoxy-1-{(2S)-2-[(1R,2R)-1-methoxy-2-methyl-3-oxo-3-{[(1S)-2-phenyl-1-(1,3-thiazol-2-yl)ethyl]amino}propyl]pyrrolidin-1-yl}-5-methyl-1-oxoheptan-4-yl](methyl)amino}-3-methyl-1-oxobutan-2-yl]-2-methylpiperidine-2-carboxamide], for which the figures for the half-maximal inhibitory concentration (IC50) in the experiment on N87 (gastric cancer) and in the experiment on BT474 (breast cancer) were 0.066 nM and 0.134 nM, respectively.

On to `CC[C@H](C)[C@@H]([C@@H](CC(=O)N1CCC[C@H]1[C@H](OC)[C@@H](C)C(=O)N[C@@H](C(=O)OC)C1(c2ccccc2)CC1)OC)N(C)C(=O)[C@@H](NC(=O)C(C)(C)N)C(C)C` [#222] (H-[Aib]V[Dil][Dolaproine][X2]-OMe), for which the IC50 with N87 (gastric cancer) is 0.352 nM; with BT474 (breast cancer), 0.158 nM.

`CC[C@H](C)[C@@H]([C@@H](CC(=O)N1CCC[C@H]1[C@H](OC)[C@@H](C)C(=O)N[C@H](C(=O)OC)[C@H]1Cc2ccccc21)OC)N(C)C(=O)[C@@H](NC(=O)C(C)(C)N)C(C)C` [#225] (H-[Aib]V[Dil][Dolaproine][X11]-OMe): the half-inhibitory concentration (IC50) with N87 (gastric cancer) is 10.5 nM; in the experiment on BT474 (breast cancer), 3.45 nM.

As to `CC[C@H](C)[C@@H]([C@@H](CC(=O)N1CCC[C@H]1[C@H](OC)[C@@H](C)C(=O)N[C@@H](Cc1ccccc1)C(=O)OC)OC)N(C)C(=O)[C@@H](NC(=O)C(C)(C)N(C)C)C(C)C` [#228] (X4-V[Dil][Dolaproine]F-OMe), the results for the IC50 in the experiment with N87 (gastric cancer) and with BT474 (breast cancer) were 0.09 nM and 0.105 nM, respectively.

For the molecule `C=CCOC(=O)[C@H](Cc1ccccc1)NC(=O)[C@H](C)[C@@H](OC)[C@@H]1CCCN1C(=O)C[C@@H](OC)[C@H]([C@@H](C)CC)N(C)C(=O)[C@@H](NC(=O)C(C)(C)NC)C(C)C` [#238] (H-[NMeAib]V[Dil][Dolaproine]F-OAll), the concentration for half-maximal inhibition (IC50) was determined as 0.077 nM in the experiment on N87 (gastric cancer) and 0.139 nM in the experiment with BT474 (breast cancer).

Turning to `CC[C@H](C)[C@@H]([C@@H](CC(=O)N1CCC[C@H]1[C@H](OC)[C@@H](C)C(=O)N[C@@H](Cc1ccc(O)cc1)C(=O)OC)OC)N(C)C(=O)[C@@H](NC(=O)C(C)(C)NC)C(C)C` [#243] (H-[NMeAib]V[Dil][Dolaproine]Y-OMe), the half-inhibitory concentration (IC50) in the experiment on N87 (gastric cancer) came to 1.3 nM; in experiment [1] it was 1.28 nM.

Take `CC[C@H](C)[C@@H]([C@@H](CC(=O)N1CCC[C@H]1[C@H](OC)[C@@H](C)C(=O)NCCC1C=CC=CC=C1)OC)N(C)C(=O)[C@@H](NC(=O)[C@@]1(C)CCCN1)C(C)C` [#247] (H-[d(αMeP)]V[Dil][Dolaproine]-X8): the concentration for half-maximal inhibition (IC50) with N87 (gastric cancer) came to 2.06 nM; in the experiment on BT474 (breast cancer) it was 1.01 nM.
